Experiment: xn = mol fraction of the nth substance listed
Conditions: Liquid, Vibrating tube method

CCCCCCCCCC [decane] + CCO
Conditions | mass density [kg/m3]
362.64 K, 11000 kPa, x2 = 0.1011 | 686.5
362.64 K, 11000 kPa, x2 = 0.4963 | 692.75
362.64 K, 11000 kPa, x2 = 0.9014 | 719.95
362.64 K, 12000 kPa, x2 = 0.1011 | 687.56
362.64 K, 12000 kPa, x2 = 0.4963 | 693.89
362.64 K, 12000 kPa, x2 = 0.9014 | 721.13
362.64 K, 13000 kPa, x2 = 0.1011 | 688.62
362.64 K, 13000 kPa, x2 = 0.4963 | 694.99
362.64 K, 13000 kPa, x2 = 0.9014 | 722.28
362.64 K, 14000 kPa, x2 = 0.1011 | 689.68
362.64 K, 14000 kPa, x2 = 0.4963 | 696.14
362.64 K, 14000 kPa, x2 = 0.9014 | 723.43
362.64 K, 15000 kPa, x2 = 0.1011 | 690.66
362.64 K, 15000 kPa, x2 = 0.4963 | 697.17
362.64 K, 15000 kPa, x2 = 0.9014 | 724.55
362.64 K, 16000 kPa, x2 = 0.1011 | 691.66
362.64 K, 16000 kPa, x2 = 0.4963 | 698.23
362.64 K, 16000 kPa, x2 = 0.9014 | 725.65
362.64 K, 17000 kPa, x2 = 0.1011 | 692.65
362.64 K, 17000 kPa, x2 = 0.4963 | 699.27
362.64 K, 17000 kPa, x2 = 0.9014 | 726.75
362.64 K, 18000 kPa, x2 = 0.1011 | 693.62
362.64 K, 18000 kPa, x2 = 0.4963 | 700.3
362.64 K, 18000 kPa, x2 = 0.9014 | 727.82
362.64 K, 19000 kPa, x2 = 0.1011 | 694.56
362.64 K, 19000 kPa, x2 = 0.4963 | 701.3
362.64 K, 19000 kPa, x2 = 0.9014 | 728.87
362.64 K, 20000 kPa, x2 = 0.1011 | 695.5
362.64 K, 20000 kPa, x2 = 0.4963 | 702.3
362.64 K, 20000 kPa, x2 = 0.9014 | 729.9
362.65 K, 1000 kPa, x2 = 0.0937 | 675.13
362.65 K, 2000 kPa, x2 = 0.0937 | 676.3
362.65 K, 3000 kPa, x2 = 0.0937 | 677.46
362.65 K, 4000 kPa, x2 = 0.0937 | 678.6
362.65 K, 5000 kPa, x2 = 0.0937 | 679.76
362.65 K, 6000 kPa, x2 = 0.0937 | 680.91
362.65 K, 7000 kPa, x2 = 0.0937 | 682.04
362.65 K, 8000 kPa, x2 = 0.0937 | 683.16
362.65 K, 9000 kPa, x2 = 0.0937 | 684.25
362.65 K, 10000 kPa, x2 = 0.0937 | 685.35
362.65 K, 11000 kPa, x2 = 0.0937 | 686.41
362.65 K, 12000 kPa, x2 = 0.0937 | 687.48
362.65 K, 13000 kPa, x2 = 0.0937 | 688.51
362.65 K, 14000 kPa, x2 = 0.0937 | 689.55
362.65 K, 15000 kPa, x2 = 0.0937 | 690.57
362.65 K, 16000 kPa, x2 = 0.0937 | 691.56
362.65 K, 17000 kPa, x2 = 0.0937 | 692.56
362.65 K, 18000 kPa, x2 = 0.0937 | 693.53
362.65 K, 19000 kPa, x2 = 0.0937 | 694.47
362.65 K, 20000 kPa, x2 = 0.0937 | 695.39
362.71 K, 1000 kPa, x2 = 0.7526 | 692.67
362.71 K, 2000 kPa, x2 = 0.7526 | 693.99
362.71 K, 3000 kPa, x2 = 0.7526 | 695.3
362.71 K, 4000 kPa, x2 = 0.7526 | 696.58
362.71 K, 5000 kPa, x2 = 0.7526 | 697.86
362.71 K, 6000 kPa, x2 = 0.7526 | 699.12
362.71 K, 7000 kPa, x2 = 0.7526 | 700.37
362.71 K, 8000 kPa, x2 = 0.7526 | 701.6
362.71 K, 9000 kPa, x2 = 0.7526 | 702.81
362.71 K, 10000 kPa, x2 = 0.7526 | 704.01
362.71 K, 11000 kPa, x2 = 0.7526 | 705.19
362.71 K, 12000 kPa, x2 = 0.7526 | 706.37
362.71 K, 13000 kPa, x2 = 0.7526 | 707.51
362.71 K, 14000 kPa, x2 = 0.7526 | 708.68
362.71 K, 15000 kPa, x2 = 0.7526 | 709.76
362.71 K, 16000 kPa, x2 = 0.7526 | 710.84
362.71 K, 17000 kPa, x2 = 0.7526 | 711.92
362.71 K, 18000 kPa, x2 = 0.7526 | 712.98
362.71 K, 19000 kPa, x2 = 0.7526 | 714.02
362.71 K, 20000 kPa, x2 = 0.7526 | 715.03
362.8 K, 1000 kPa, x2 = 0.2507 | 676.12
362.8 K, 2000 kPa, x2 = 0.2507 | 677.34
362.8 K, 3000 kPa, x2 = 0.2507 | 678.55
362.8 K, 4000 kPa, x2 = 0.2507 | 679.73
362.8 K, 5000 kPa, x2 = 0.2507 | 680.92
362.8 K, 6000 kPa, x2 = 0.2507 | 682.09
362.8 K, 7000 kPa, x2 = 0.2507 | 683.25
362.8 K, 8000 kPa, x2 = 0.2507 | 684.4
362.8 K, 9000 kPa, x2 = 0.2507 | 685.54
362.8 K, 10000 kPa, x2 = 0.2507 | 686.66
362.8 K, 11000 kPa, x2 = 0.2507 | 687.77
362.8 K, 12000 kPa, x2 = 0.2507 | 688.85
362.8 K, 13000 kPa, x2 = 0.2507 | 689.91
362.8 K, 14000 kPa, x2 = 0.2507 | 691.02
362.8 K, 15000 kPa, x2 = 0.2507 | 692.02
362.8 K, 16000 kPa, x2 = 0.2507 | 693.05
362.8 K, 17000 kPa, x2 = 0.2507 | 694.06
362.8 K, 18000 kPa, x2 = 0.2507 | 695.04
362.8 K, 19000 kPa, x2 = 0.2507 | 696.01
362.8 K, 20000 kPa, x2 = 0.2507 | 696.96
